Reference: patent US9550782B2, “Compounds and methods for treating diabetes” (Medivation Technologies, Inc., priority 2011, dated 2017)
Values joined by “and” are separate entries in the source; they are usually repeats but may differ in a detail not shown here. Equal values may be shown once.

Legend:
[1] = molecular target: T1, rat adrenergic α1B receptor (Rattus norvegicus, UniProt P15823); experiment: Radioligand binding, adrenergic α1B ([3H]Prazosin); set-up: species or system Wistar Rat; conditions: for Percentage inhibition of ligand binding, Adrenergic α1B (0.1 μM): repeat datapoints each shown
T1 construct: rat adrenergic α1B receptor obtained from Wistar Rat liver; from tissue; host or cells: Wistar rat liver
T1 sequence (P15823 1-515): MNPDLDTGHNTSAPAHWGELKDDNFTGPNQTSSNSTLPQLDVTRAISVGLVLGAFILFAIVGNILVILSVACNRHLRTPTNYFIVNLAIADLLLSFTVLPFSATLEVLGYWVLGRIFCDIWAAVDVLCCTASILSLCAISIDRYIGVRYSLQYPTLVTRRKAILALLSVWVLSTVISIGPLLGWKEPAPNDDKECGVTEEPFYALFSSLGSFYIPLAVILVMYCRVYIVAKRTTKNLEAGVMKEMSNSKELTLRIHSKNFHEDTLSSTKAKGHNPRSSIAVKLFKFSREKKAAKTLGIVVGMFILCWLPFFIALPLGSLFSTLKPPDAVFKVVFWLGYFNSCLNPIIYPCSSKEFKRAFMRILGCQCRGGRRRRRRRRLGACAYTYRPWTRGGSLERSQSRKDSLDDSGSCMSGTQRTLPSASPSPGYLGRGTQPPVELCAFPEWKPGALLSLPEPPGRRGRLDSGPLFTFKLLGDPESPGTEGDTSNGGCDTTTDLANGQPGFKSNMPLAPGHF
Procedure, shortened: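 Incubation ran 60 min at 25 °C in Tris-HCl buffer (50 mM, pH 7.4, 0.5 mM EDTA) with Wistar rat liver α1B receptor. 10 μM phentolamine set non-specific binding.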

[2] = molecular target: T2, human recombinant adrenergic α2B receptor (Homo sapiens, UniProt P18089); experiment: Radioligand binding, adrenergic α2B ([3H]Rauwolscine); conditions: for Percentage inhibition of ligand binding, Adrenergic α2B (0.03 μM): repeat datapoints each shown
T2 construct: expressed in transfected cells; host or cells: CHO-K1
T2 sequence (P18089 1-450): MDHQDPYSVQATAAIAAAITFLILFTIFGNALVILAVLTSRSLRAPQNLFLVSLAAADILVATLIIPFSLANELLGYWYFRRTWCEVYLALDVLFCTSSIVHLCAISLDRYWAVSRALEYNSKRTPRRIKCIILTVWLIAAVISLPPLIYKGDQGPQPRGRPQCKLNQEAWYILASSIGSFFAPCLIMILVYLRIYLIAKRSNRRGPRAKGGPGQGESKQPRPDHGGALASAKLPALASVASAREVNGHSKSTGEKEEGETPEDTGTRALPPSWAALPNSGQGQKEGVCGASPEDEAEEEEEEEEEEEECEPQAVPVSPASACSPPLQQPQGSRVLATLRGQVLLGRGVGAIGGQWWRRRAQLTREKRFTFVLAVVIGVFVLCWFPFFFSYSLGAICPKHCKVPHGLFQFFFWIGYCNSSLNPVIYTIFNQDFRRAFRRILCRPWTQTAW
Procedure, shortened: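 Values are percent inhibition of specific radioligand binding. The receptor, expressed in CHO-K1 cells, was exposed to 2.5 nM [3H]Rauwolscine at 25° C for 60 min, with 10 μM Prazosin marking non-specific binding.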

[3] = molecular target: T3, human recombinant adrenergic α2A receptor (Homo sapiens, UniProt P08913); experiment: Radioligand binding, adrenergic α2A ([3H]MK-912); conditions: [3H]MK-912; for Percentage inhibition of ligand binding, Adrenergic α2A (0.1 μM) / Percentage inhibition of ligand binding, Adrenergic α2A: 0.1 µM
T3 construct: expressed in transfected cells; host or cells: insect Sf9 cells
T3 sequence (P08913 1-465): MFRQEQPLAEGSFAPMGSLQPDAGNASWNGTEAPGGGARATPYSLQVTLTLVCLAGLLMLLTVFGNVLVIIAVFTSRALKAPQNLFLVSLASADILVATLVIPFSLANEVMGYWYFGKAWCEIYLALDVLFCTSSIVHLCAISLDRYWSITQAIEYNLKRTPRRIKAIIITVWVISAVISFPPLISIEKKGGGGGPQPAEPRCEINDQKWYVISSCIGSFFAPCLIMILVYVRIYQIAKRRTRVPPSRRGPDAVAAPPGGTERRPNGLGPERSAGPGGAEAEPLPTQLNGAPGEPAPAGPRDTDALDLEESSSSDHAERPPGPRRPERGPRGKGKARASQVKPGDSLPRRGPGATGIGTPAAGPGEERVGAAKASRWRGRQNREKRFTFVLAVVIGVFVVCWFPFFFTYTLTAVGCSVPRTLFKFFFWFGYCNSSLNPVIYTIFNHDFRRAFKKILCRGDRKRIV
Procedure, shortened: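 Sf9-expressed receptor was incubated with compound for 60 min at 25 °C in modified Tris-HCl buffer, pH 7.4. Nonspecific binding was taken as that remaining with 10 μM WB-4101.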

[4] = compound at 0.1 μM, repeat datapoints each shown

Cc1ccc2c(c1)c1c(n2CC(O)c2ccncc2)CN(C)CC1 (stereo not drawn) [8a]
Percentage inhibition of ligand binding, Adrenergic α1B (0.1 μM) ([1]; compound at 0.1 μM, 0.1 µM): 39% | Percentage inhibition of ligand binding, Adrenergic α2B (0.03 μM) ([2]; compound at 0.03 μM, 0.03 µM): 22% | Percentage inhibition of ligand binding, Adrenergic α2A (0.1 μM) [3, 4]: 15%

Cc1ccc2c(c1)c1c(n2CC(O)c2ccc(C#N)cc2)CCNC1 (stereo not drawn) [II-116]
inhibition at 0.1 µM ([1]; read-out: Percentage inhibition of ligand binding, Adrenergic α1B (0.1 μM), compound at 0.1 μM, repeat datapoints each shown): 4% | inhibition at 0.03 µM ([2]; read-out: Percentage inhibition of ligand binding, Adrenergic α2B (0.03 μM), compound at 0.03 μM, repeat datapoints each shown): 43% | inhibition at 0.1 µM ([3]; read-out: Percentage inhibition of ligand binding, Adrenergic α2A (0.1 μM), compound at 0.1 μM, repeat datapoints each shown): 3%

OCCN1CCc2c(c3cc(Cl)ccc3n2CC(O)c2cccnc2)C1 (single isomer, unassigned) [II-94b]
Percentage inhibition of ligand binding, Adrenergic α1B ([1]; compound at 0.1 μM): 7% | Percentage inhibition of ligand binding, Adrenergic α2B ([2]; compound at 0.03 μM, 0.03 µM): 24% | Percentage inhibition of ligand binding, Adrenergic α2A ([3]; compound at 0.1 μM): −5%

Cc1ccc2c(c1)c1c(n2CC(O)c2ccncc2)CCN2CCCCC12 (single isomer, unassigned) [47d]
Percentage inhibition of ligand binding, Adrenergic α1B (0.1 μM) ([1]; compound at 0.1 μM, 0.1 µM): 5% | Percentage inhibition of ligand binding, Adrenergic α2B (0.03 μM) ([2]; compound at 0.03 μM, 0.03 µM): 30% | Percentage inhibition of ligand binding, Adrenergic α2A (0.1 μM) [3, 4]: −3%

CN1CCc2c(c3cccc(Cl)c3n2CC(O)c2ccncc2)C1 (single isomer, unassigned) [45b]
Percentage inhibition of ligand binding, Adrenergic α1B (0.1 μM) ([1]; compound at 0.1 μM, 0.1 µM): 24% | Percentage inhibition of ligand binding, Adrenergic α2B (0.03 μM) ([2]; compound at 0.03 μM, 0.03 µM): 96% | Percentage inhibition of ligand binding, Adrenergic α2A (0.1 μM) [3, 4]: 16%

Cc1cnc2c(c1)c1c(n2CC(C)(O)c2ccc(C)nc2)CCN2CCCC12 (single isomer, unassigned) [148a]
Percentage inhibition of ligand binding, Adrenergic α1B ([1]; 0.1 μM compound, 0.1 µM): 23% | Percentage inhibition of ligand binding, Adrenergic α2B ([2]; 0.03 μM compound, 0.03 µM): 52% | Percentage inhibition of ligand binding, Adrenergic α2A ([3]; 0.1 μM compound): −5%

Cc1cnc2c(c1)c1c(n2CC(C)(O)c2cccnc2)CCN2CCCC12 (single isomer, unassigned) [26d]
Percentage inhibition of ligand binding, Adrenergic α1B (0.1 μM) ([1]; compound at 0.1 μM, 0.1 µM): −2% | Percentage inhibition of ligand binding, Adrenergic α2B (0.03 μM) ([2]; compound at 0.03 μM, 0.03 µM): 6% and 11% | Percentage inhibition of ligand binding, Adrenergic α2A (0.1 μM) [3, 4]: 0%

Cc1ccc2c(c1)c1c(n2CC(C)(OC(=O)C(C)C)c2cccnc2)CCN(C)C1 (single isomer, unassigned) [146b]
Percentage inhibition of ligand binding, Adrenergic α1B ([1]; 0.1 μM compound, 0.1 µM): 11% | Percentage inhibition of ligand binding, Adrenergic α2B ([2]; 0.03 μM compound, 0.03 µM): 63% | Percentage inhibition of ligand binding, Adrenergic α2A ([3]; 0.1 μM compound): 21%

OC(Cn1c2c(c3cccnc31)CN1CCCC1C2)c1ccncc1 (single isomer, unassigned) [37b]
Percentage inhibition of ligand binding, Adrenergic α1B (0.1 μM) ([1]; compound at 0.1 μM, 0.1 µM): −10% | Percentage inhibition of ligand binding, Adrenergic α2B (0.03 μM) ([2]; compound at 0.03 μM, 0.03 µM): −3% | Percentage inhibition of ligand binding, Adrenergic α2A (0.1 μM) [3, 4]: −20%

Cc1ccc2c(c1)c1c(n2CC(O)c2ccccn2)CN(C)CC1 (single isomer, unassigned) [22a]
Percentage inhibition of ligand binding, Adrenergic α1B (0.1 μM) ([1]; compound at 0.1 μM, 0.1 µM): 19% | Percentage inhibition of ligand binding, Adrenergic α2B (0.03 μM) ([2]; compound at 0.03 μM, 0.03 µM): 22% | Percentage inhibition of ligand binding, Adrenergic α2A (0.1 μM) [3, 4]: 16%

Cc1ccc2c(c1)c1c(n2CC(O)c2ccncc2)C(C)N2CCC1C2 (single isomer, unassigned) [38b]
Percentage inhibition of ligand binding, Adrenergic α1B (0.1 μM) ([1]; compound at 0.1 μM, 0.1 µM): 20% | Percentage inhibition of ligand binding, Adrenergic α2B (0.03 μM) ([2]; compound at 0.03 μM, 0.03 µM): 17% | Percentage inhibition of ligand binding, Adrenergic α2A (0.1 μM) [3, 4]: −1%

OCCN1CCc2c(c3cc(Cl)ccc3n2CC(O)c2ccncc2)C1 (single isomer, unassigned) [II-93a]
Percentage inhibition of ligand binding, Adrenergic α1B ([1]; compound at 0.1 μM): 6% | Percentage inhibition of ligand binding, Adrenergic α2B ([2]; compound at 0.03 μM): 24% | Percentage inhibition of ligand binding, Adrenergic α2A ([3]; compound at 0.1 μM): 7%
